The text below walks through data of patent publication US9670162B2, “Mitochondrial aldehyde dehyrogenase-2 modulators and methods of use thereof” (The Board of Trustees of the Leland Stanford Junior …, priority 2013, dated 2017).

The target in one series is T1, human ALDH2 wild type (Homo sapiens, UniProt P05091).
T1 construct: His-tag (pTrcHis vector) (N); made in house; host or cells: E. coli BL21
T1 sequence (P05091 18-517): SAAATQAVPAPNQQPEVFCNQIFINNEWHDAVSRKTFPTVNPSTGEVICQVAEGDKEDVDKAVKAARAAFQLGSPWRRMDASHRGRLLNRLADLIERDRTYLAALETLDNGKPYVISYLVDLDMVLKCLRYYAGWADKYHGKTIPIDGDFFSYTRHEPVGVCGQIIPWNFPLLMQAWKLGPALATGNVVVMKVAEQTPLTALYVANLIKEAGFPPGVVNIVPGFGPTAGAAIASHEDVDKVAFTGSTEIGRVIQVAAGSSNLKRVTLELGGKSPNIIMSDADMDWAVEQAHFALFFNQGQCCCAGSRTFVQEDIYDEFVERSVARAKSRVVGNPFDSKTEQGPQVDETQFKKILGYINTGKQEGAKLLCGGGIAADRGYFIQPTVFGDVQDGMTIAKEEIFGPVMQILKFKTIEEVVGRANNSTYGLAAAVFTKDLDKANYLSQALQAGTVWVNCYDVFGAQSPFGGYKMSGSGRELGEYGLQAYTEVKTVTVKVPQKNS
The series is described as follows: ALDH2 enzymatic assay (NADH at 340 nm), recombinant wild type enzyme. To be noted: activation relative to benchmarks control 1 and compound 161. In kind it is biochemical. The arrangement: key: −: no activation or inhibition; +: activation less than control 1; ++: activation similar to control 1, within 10%; +++: activation more than control 1 and less than control (compound 161); ++++: activation similar to compound 161, within 10%.

A short description of another series: Aqueous solubility. The format is physicochemical. How it is done:
(§1) In vitro ADMET of compounds of the present disclosure was carried out according to known methods in the art. Below are data for certain compounds of the present disclosure.

The nature of a further series: MLM stability T1/2. In kind it is in vitro ADME. To be noted: mouse, liver microsomes. How it is done: as §1
In general terms: Liver microsomes are a subcellular fraction often used to study metabolism.

In a further series the target is CYP2C9 (Homo sapiens, UniProt P11712). As to the kind of experiment: Cyp inhibition 2C9. The format is in vitro ADME. Here is the method: as §1
For a further series, the target named is T2, CYP1A2 (Homo sapiens, UniProt P05177).
T2 sequence (P05177 1-516): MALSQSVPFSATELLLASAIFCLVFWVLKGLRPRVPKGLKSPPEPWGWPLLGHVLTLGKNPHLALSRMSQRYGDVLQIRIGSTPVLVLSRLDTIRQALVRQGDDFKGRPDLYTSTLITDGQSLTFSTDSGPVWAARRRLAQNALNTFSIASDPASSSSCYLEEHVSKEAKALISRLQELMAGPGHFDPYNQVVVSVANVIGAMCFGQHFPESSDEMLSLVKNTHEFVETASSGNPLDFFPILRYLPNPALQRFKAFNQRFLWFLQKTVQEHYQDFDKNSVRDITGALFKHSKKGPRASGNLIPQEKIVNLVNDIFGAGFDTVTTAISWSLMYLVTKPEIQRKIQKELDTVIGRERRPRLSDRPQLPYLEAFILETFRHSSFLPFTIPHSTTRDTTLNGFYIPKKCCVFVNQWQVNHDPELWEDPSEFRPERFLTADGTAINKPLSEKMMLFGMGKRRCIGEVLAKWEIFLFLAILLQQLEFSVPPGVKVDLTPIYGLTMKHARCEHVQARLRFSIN
The series is described as follows: Cyp inhibition 1A2. The format is in vitro ADME. The arrangement: inhibition: dose or concentration left out as unconfirmed. How it is done:
as §1

For series [1], the system named is mice treated with PO 5 g/kg of EtOH. The series is described as follows: Mouse pharmacodynamics (PD) study after EtOH. In kind it is in vivo. How it is done: Mice (male C57BL6 (8 to 9 weeks, 20-22 g)) were treated with PO […] of EtOH. Then PO 40 mg/kg or 60 mg/kg compound 161 were administered to the mice. […] FIG. 6 is a graph showing the behavior of mice at 120 min, 180 min, and 300 min. FIG. 7 is a graph showing the alcohol concentration (mg/dL) at 75 min and 180 min.
A PD study of IV administration of compound 161 was also carried out. The mice were treated with PO 5 g/kg of alcohol and were then treated with 10 mg/kg of compound 161 administered through IV. […] FIG. 8 is a graph showing the blood alcohol concentration (mg/dL) versus time (hr).

Chain of CYP2C9 (P11712 whole entry): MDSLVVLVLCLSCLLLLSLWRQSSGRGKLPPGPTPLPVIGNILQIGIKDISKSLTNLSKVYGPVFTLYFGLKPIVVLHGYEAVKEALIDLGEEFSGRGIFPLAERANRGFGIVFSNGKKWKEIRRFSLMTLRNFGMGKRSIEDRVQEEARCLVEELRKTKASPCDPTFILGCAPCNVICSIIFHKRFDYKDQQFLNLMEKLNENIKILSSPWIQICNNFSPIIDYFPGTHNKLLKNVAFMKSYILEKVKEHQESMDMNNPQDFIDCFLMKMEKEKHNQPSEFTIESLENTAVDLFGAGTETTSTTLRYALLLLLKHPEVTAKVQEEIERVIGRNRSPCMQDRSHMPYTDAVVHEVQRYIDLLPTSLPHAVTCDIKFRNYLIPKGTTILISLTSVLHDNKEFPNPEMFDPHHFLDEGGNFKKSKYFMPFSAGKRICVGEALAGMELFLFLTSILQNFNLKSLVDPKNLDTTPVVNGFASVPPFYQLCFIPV

Consider `COc1ccc(CNC(=O)c2c(Cl)ccnc2OCC2CC2)cc1F` [Compound 161], for which the “ALDH2 (wild-type)” value at human ALDH2 wild type is reported as “++++”. The “Aqu. Solu.” value in “Aqueous solubility” was determined as 28 µg/mL. In addition, the half-life in “MLM stability T1/2” turned out to be 2.08 min. Besides, the inhibition at 10 µM against CYP2C9 worked out at 5.7%; against CYP1A2 (10 μM) it was 35.2%. At CYP1A2, this compound gave an inhibition of 35%. Further, the blood alcohol levels entry was “reduces blood alcohol levels” in series [1] (PO 5 g/kg EtOH, compound PO 40 mg/kg or 60 mg/kg) and “reduces blood alcohol levels” in series [1] (PO 5 g/kg alcohol, compound 10 mg/kg IV). Further, the “PD response (behavior observation)” value in series [1] (PO EtOH, then PO 40 mg/kg or 60 mg/kg) is on record as “significant PD response”.

What is called half-life is how long it takes for the measured level to halve. The term inhibition denotes the change of the read-out against control, counted positive when it falls.
